In PubChem BioAssay (NCI):
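Dose response: 5 concentrations. Exposure: 48 h. Format: 96-well plates. Endpoint: linear interpolation; highest concentration if not reached. Definition used: TGI = concentration required for complete inhibition of growth.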

Experiments:
Test in all cases: NCI tumour cell line growth inhibition, 48 h
[1] = test system: HOP-92 NSCLC
[2] = test system: HL-60(TB) leukemia
[3] = test system: SR leukemia
[4] = test system: HCT-15 colon
[5] = test system: U251 CNS
[6] = test system: 786-0 renal
[7] = test system: DU-145 prostate
[8] = test system: HCT-116 colon
[9] = test system: RXF 393 renal
[10] = test system: A498 renal

| Structure (SMILES) | TGI [1] | TGI [2] | TGI [3] | TGI [4] | TGI [5] | TGI [6] | TGI [7] | TGI [8] | TGI [9] | TGI [10] |
| --- | --- | --- | --- | --- | --- | --- | --- | --- | --- | --- |
| COc1cc(CC2c3cc(OC)c(OC)cc3CCN2C)c(Oc2cc3c(cc2OC)-c2c(O)c(OC)cc4c2C(C3)N(C)CC4)cc1OC (stereo not given) | 32.6 µM | 17.9 µM | 17.5 µM | 33.1 µM | > 100 µM | 84.4 µM | > 100 µM | > 100 µM | 9.35 µM | 43 µM |
| CNC(=O)c1cc(NC(=O)N(CCC#N)CCN(C(=O)N[C@@H](Cc2ccccc2)C(=O)N[C@@H](CC(C)C)C(=O)NC)c2ccccc2)ccc1OC | 71.7 µM | > 100 µM | 68.9 µM | > 100 µM | > 100 µM | > 100 µM | > 100 µM | > 100 µM | 99.4 µM | > 91.5 µM |
| O=C1/C(=C/c2ccccc2[N+](=O)[O-])N=C(c2ccccc2)N1C1Nc2cc3c(cc2S1)NC(N1C(=O)/C(=C/c2ccccc2[N+](=O)[O-])N=C1c1ccccc1)S3 (stereo not given) | > 100 µM | 96.2 µM | 90.3 µM | > 100 µM | > 100 µM | 79.6 µM | > 100 µM | > 100 µM | > 100 µM | > 100 µM |
| COC(=O)/C=C(/C(=O)OC)c1c(C)c(C)c2c(C)cc(C)cc(C)c1-2 | > 100 µM | > 100 µM | > 100 µM | > 100 µM | > 100 µM | > 100 µM | > 100 µM | > 100 µM | > 100 µM | > 100 µM |
| NC(=S)Nc1[nH]c(=S)nc2c1SC1=N/C(=C\c3ccco3)C(=O)N12 | > 100 µM | 46.8 µM | > 70.7 µM | > 100 µM | > 100 µM | > 100 µM | > 100 µM | > 100 µM | > 100 µM | > 100 µM |
| C(=C\c1ccccc1)/C=N/c1nc2cc3sc(/N=C/C=C/c4ccccc4)nc3cc2s1 | > 100 µM | > 100 µM | 32.4 µM | > 100 µM | > 100 µM | > 100 µM | > 100 µM | > 100 µM | > 100 µM | > 100 µM |
| CN(C)CCNC(=O)c1cccc2nc3c(nc12)-c1ccccc1C3=O | 40.9 µM | 22.7 µM | > 21.5 µM | 41.4 µM | 45.6 µM | 30.2 µM | 70 µM | 88.3 µM | 34.4 µM | 29.5 µM |
| O=C1Cc2c([nH]c3ccc(Br)cc23)-c2ccccc2N1 | > 100 µM | > 53.8 µM | > 100 µM | > 100 µM | > 100 µM | > 100 µM | > 100 µM | […] | > 100 µM | > 100 µM |
| O=C1COc2ccc([N+](=O)[O-])cc2C(=O)C1 | > 10 µM | > 10 µM | > 10 µM | > 10 µM | > 10 µM | > 10 µM | > 10 µM | > 10 µM | > 10 µM | > 10 µM |
| OC1(c2cc3ccccc3s2)CCCCC1 | > 100 µM | > 100 µM | > 100 µM | > 100 µM | > 100 µM | > 100 µM | > 100 µM | > 100 µM | > 100 µM | > 100 µM |
| Cc1sc(/N=C/c2c[nH]c3ccccc23)c(C#N)c1C | > 100 µM | > 100 µM | > 100 µM | > 100 µM | 96.4 µM | > 100 µM | > 100 µM | > 100 µM | 74 µM | 96.7 µM |
